In PubChem BioAssay AID248 (DTP/NCI, 2004):
Toxic doses and inconclusive results are not listed. Rule as the data show it: active = T/C of 150% or more; inactive = T/C below 125%.

System: L1210 leukemia ip in BDF1 mice, survival T/C
Assay: NCI In Vivo Anticancer Drug Screen. Data for tumor model L1210 Leukemia (intraperitoneal) in B6D2F1 (BDF1) mice
Details: endpoint: mean survival time, higher = longer survival
Procedure, shortened: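 Ratio derived from survival: compound-dosed mice over vehicle-dosed mice, all bearing a transplantable tumor.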

[1] = dose: 100.0 mg/kg/injection, schedule: Q01DX009 (ip), vehicle: saline with Tween-80
[2] = dose: 100.0 mg/kg/injection, schedule: Q04DX003 (ip), vehicle: saline with Tween-80
[3] = dose: 200.0 mg/kg/injection, schedule: Q01DX009 (ip), vehicle: saline with Tween-80
[4] = dose: 200.0 mg/kg/injection, schedule: Q04DX003 (ip), vehicle: saline with Tween-80
[5] = dose: 400.0 mg/kg/injection, schedule: Q01DX009 (ip), vehicle: saline with Tween-80
[6] = dose: 400.0 mg/kg/injection, schedule: Q04DX003 (ip), vehicle: saline with Tween-80
[7] = dose: 100.0 mg/kg/injection, schedule: Q01DX001 (ip), vehicle: saline
[8] = dose: 200.0 mg/kg/injection, schedule: Q01DX001 (ip), vehicle: saline
[9] = dose: 400.0 mg/kg/injection, schedule: Q01DX001 (ip), vehicle: saline

Measured: T/C

CC1=NN(c2ccc([N+](=O)[O-])cc2)C(=O)C1[N+](=O)[O-] (centres undefined) (tested in a mixture with another compound)
inactive: dose: 75.0 mg/kg/injection, schedule: Q01DX001 (ip), vehicle: carboxymethylcellulose (CMC) 101 % of control | dose: 150.0 mg/kg/injection, schedule: Q01DX001 (ip), vehicle: carboxymethylcellulose (CMC) 95 % of control | dose: 300.0 mg/kg/injection, schedule: Q01DX001 (ip), vehicle: carboxymethylcellulose (CMC) 110 % of control

Nc1[nH]nc2nccnc12
inactive: [1] 103 % of control | [2] 96 % of control | [3] 98 % of control | [4] 97 % of control | [5] 95 % of control | [6] 102 % of control

O=C1NCC2(O1)c1ccccc1-c1ccccc12
inactive: dose: 25.6 mg/kg/injection, schedule: Q04DX002 (ip), vehicle: saline with Tween-80 92 % of control | dose: 64.0 mg/kg/injection, schedule: Q04DX002 (ip), vehicle: saline with Tween-80 98 % of control | dose: 160.0 mg/kg/injection, schedule: Q04DX002 (ip), vehicle: saline with Tween-80 113 % of control

O=C(CCCl)NCCCCCCNC(=O)CCCl
inactive: [7] 100 % of control | [8] 89 % of control | [9] 90 % of control

CC1CCC2(NC1)OC1CC3C4CCC5CC(OC6OC(CO)C(OC7OC(CO)C(O)C(OC8OCC(O)C(O)C8O)C7OC7OC(CO)C(O)C(O)C7O)C(O)C6O)CCC5(C)C4CCC3(C)C1C2C (centres undefined)
inactive: dose: 12.5 mg/kg/injection, schedule: Q01DX009 (ip), vehicle: saline with Tween-80 93 % of control | dose: 25.0 mg/kg/injection, schedule: Q01DX009 (ip), vehicle: saline with Tween-80 90 % of control | dose: 50.0 mg/kg/injection, schedule: Q01DX009 (ip), vehicle: saline with Tween-80 94 % of control | dose: 100.0 mg/kg/injection, schedule: Q01DX001 (sc), vehicle: steriod suspending solution 95 % of control | dose: 200.0 mg/kg/injection, schedule: Q01DX001 (sc), vehicle: steriod suspending solution 103 % of control | dose: 400.0 mg/kg/injection, schedule: Q01DX001 (sc), vehicle: steriod suspending solution 97 % of control

O=C(Nc1ccc(S(=O)(=O)NC2CCCCC2)cc1)OC1CCCCCC1
inactive: [7] 94 % of control | [8] 94 % of control | [9] 88 % of control

Clc1ccc(-c2nnc(-c3cccc4ccccc34)o2)cc1Cl
inactive: [1] 89 % of control | [2] 86 % of control | [4] 92 % of control | [5] 86 % of control | [6] 86 % of control

CCCCCCCCCCCCCCCC(=O)SCCSC(=O)CCCCCCCCCCCCCCC
inactive: dose: 87.5 mg/kg/injection, schedule: Q04DX003 (ip), vehicle: other 93 % of control | dose: 175.0 mg/kg/injection, schedule: Q04DX003 (ip), vehicle: other 93 % of control

NNC(=O)c1ccc[nH]1
inactive: dose: 75.0 mg/kg/injection, schedule: Q01DX001 (ip), vehicle: saline 102 % of control

CCC(CC)=NNc1ccc([N+](=O)[O-])cc1[N+](=O)[O-]
inactive: [7] 95 % of control | [8] 97 % of control | [9] 97 % of control

CCOC(=O)CNCc1ccc(C)cc1
inactive: dose: 100.0 mg/kg/injection, schedule: Q01DX009 (ip), vehicle: water 102 % of control | dose: 100.0 mg/kg/injection, schedule: Q04DX003 (ip), vehicle: water 93 % of control | dose: 200.0 mg/kg/injection, schedule: Q01DX009 (ip), vehicle: water 111 % of control | dose: 200.0 mg/kg/injection, schedule: Q04DX003 (ip), vehicle: water 93 % of control | dose: 400.0 mg/kg/injection, schedule: Q01DX009 (ip), vehicle: water 105 % of control | dose: 400.0 mg/kg/injection, schedule: Q04DX003 (ip), vehicle: water 97 % of control

Nc1c(Cl)cc2c(c1Br)C(=O)c1ccccc1C2=O
inactive: dose: 100.0 mg/kg/injection, schedule: Q01DX001 (ip), vehicle: Klucel (hydroxypropylcellulose) (HPC) 117 % of control | dose: 400.0 mg/kg/injection, schedule: Q01DX001 (ip), vehicle: Klucel (hydroxypropylcellulose) (HPC) 90 % of control

CC(C)(C)CC(C)(C)N
inactive: dose: 12.5 mg/kg/injection, schedule: Q01DX001 (ip), vehicle: Klucel (hydroxypropylcellulose) (HPC) 100 % of control | dose: 25.0 mg/kg/injection, schedule: Q01DX001 (ip), vehicle: Klucel (hydroxypropylcellulose) (HPC) 92 % of control | dose: 50.0 mg/kg/injection, schedule: Q01DX001 (ip), vehicle: Klucel (hydroxypropylcellulose) (HPC) 92 % of control

CC1OC1COC1COC2C(OCC3OC3C)COC12 (centres undefined)
inactive: [7] 106 % of control | [8] 106 % of control | [9] 101 % of control

CCNC(=O)N(C)Cc1ccc(Cl)cc1
inactive: [1] 88 % of control | [3] 95 % of control

CNC(=O)c1nc(C)c(C)nc1OCc1ccccc1
inactive: dose: 100.0 mg/kg/injection, schedule: Q01DX009 (ip), vehicle: saline 106 % of control | dose: 100.0 mg/kg/injection, schedule: Q04DX003 (ip), vehicle: saline 96 % of control | dose: 200.0 mg/kg/injection, schedule: Q01DX009 (ip), vehicle: saline 92 % of control | dose: 200.0 mg/kg/injection, schedule: Q04DX003 (ip), vehicle: saline 94 % of control | dose: 400.0 mg/kg/injection, schedule: Q01DX009 (ip), vehicle: saline 87 % of control | dose: 400.0 mg/kg/injection, schedule: Q04DX003 (ip), vehicle: saline 96 % of control

Cc1ccccc1[P+](Cc1ccccc1)(c1ccccc1)c1ccccc1C
inactive: dose: 15.0 mg/kg/injection, schedule: Q01DX001 (ip), vehicle: saline 104 % of control

NCCOS(=O)(=O)O
inactive: dose: 100.0 mg/kg/injection, schedule: Q01DX009 (ip), vehicle: Klucel (hydroxypropylcellulose) (HPC) 105 % of control | [1] 92 % of control | dose: 200.0 mg/kg/injection, schedule: Q01DX009 (ip), vehicle: Klucel (hydroxypropylcellulose) (HPC) 101 % of control | [3] 108 % of control | dose: 400.0 mg/kg/injection, schedule: Q01DX009 (ip), vehicle: Klucel (hydroxypropylcellulose) (HPC) 100 % of control | [5] 99 % of control

COC(=O)CCC(N=C=O)C(=O)OC (centres undefined)
inactive: [7] 101 % of control | [8] 98 % of control | [9] 106 % of control

CCOP(=S)(N1CC1C)N1CC1C (centres undefined)
inactive: dose: 25.0 mg/kg/injection, schedule: Q01DX Z (ip), vehicle: carboxymethylcellulose (CMC) 103 % of control | dose: 50.0 mg/kg/injection, schedule: Q01DX Z (ip), vehicle: carboxymethylcellulose (CMC) 105 % of control | dose: 100.0 mg/kg/injection, schedule: Q01DX Z (ip), vehicle: carboxymethylcellulose (CMC) 108 % of control | dose: 200.0 mg/kg/injection, schedule: Q01DX Z (ip), vehicle: carboxymethylcellulose (CMC) 121 % of control

O=[N+]([O-])c1ccc(O)c(/C=N/N2CCN(/N=C/c3cc([N+](=O)[O-])ccc3O)CC2)c1
inactive: [7] 91 % of control | [8] 97 % of control | [9] 97 % of control

CC(=O)CCC(C(C)=O)C(C)=O
inactive: [7] 106 % of control | [8] 106 % of control | [9] 103 % of control

CC#CCCC(=O)OCC
inactive: dose: 100.0 mg/kg/injection, schedule: Q04DX002 (ip), vehicle: Klucel (hydroxypropylcellulose) (HPC) 104 % of control | dose: 200.0 mg/kg/injection, schedule: Q04DX002 (ip), vehicle: Klucel (hydroxypropylcellulose) (HPC) 106 % of control | dose: 400.0 mg/kg/injection, schedule: Q04DX002 (ip), vehicle: Klucel (hydroxypropylcellulose) (HPC) 95 % of control

N#CSc1nc2ccccc2s1
inactive: dose: 6.0 mg/kg/injection, schedule: Q01DX001 (ip), vehicle: saline 88 % of control | dose: 12.0 mg/kg/injection, schedule: Q01DX001 (ip), vehicle: saline 89 % of control | dose: 25.0 mg/kg/injection, schedule: Q01DX001 (ip), vehicle: saline 98 % of control | dose: 25.0 mg/kg/injection, schedule: Q04DX003 (ip), vehicle: saline with Tween-80 92 % of control | dose: 50.0 mg/kg/injection, schedule: Q04DX003 (ip), vehicle: saline with Tween-80 91 % of control | [2] 96 % of control

N/N=C(\N)NC(=O)c1ccccc1
inactive: dose: 15.0 mg/kg/injection, schedule: Q01DX Z (ip), vehicle: saline 103 % of control | dose: 30.0 mg/kg/injection, schedule: Q01DX Z (ip), vehicle: saline 97 % of control | dose: 60.0 mg/kg/injection, schedule: Q01DX Z (ip), vehicle: saline 94 % of control | dose: 120.0 mg/kg/injection, schedule: Q01DX Z (ip), vehicle: saline 105 % of control | dose: 240.0 mg/kg/injection, schedule: Q01DX Z (oral), vehicle: saline 108 % of control | dose: 480.0 mg/kg/injection, schedule: Q01DX Z (oral), vehicle: saline 95 % of control | dose: 960.0 mg/kg/injection, schedule: Q01DX Z (oral), vehicle: saline 103 % of control | dose: 1920.0 mg/kg/injection, schedule: Q01DX Z (oral), vehicle: saline 101 % of control
